Measured values taken from patent publication US20180228823A1, “ANTI-DIABETIC EFFECTS OF GYPENOSIDE 75” (INTELLIGENT SYNTHETIC BIOLOGY CENTER, priority 2016, published 2018).

Legend:
Type in all cases: cell-based
INS-1 cells [1] = assay: Insulin secretion of INS-1 cells measured by ELISA; conditions: 10 μM, 2 hours
Procedure: In order to confirm the effect of gypenoside 75 on an increase in insulin secretion, the amount of insulin secreted after treatment with gypenoside 75 was measured. Specifically, in order to confirm the effect of gypenoside 75 on an increase in insulin secretion, INS-1 cells, which are insulin-secreting cells, were cultured in a cell incubator (37° C., 5% CO2, RPMI culture medium, 10% FBS). The cells were treated with each of 10 μM of gypenoside 75, ginsenoside F1, ginsenoside Rg3, ginsenoside Rb2, and ginsenoside Rb3 for 2 hours, and the amounts of insulin secreted after the treatments were then measured via the ELISA method.

INS-1 cells [2] = assay: Intracellular ATP amount by luciferase/luciferin assay in INS-1 cells; conditions: 10 μM, 2 hours, luciferase
Procedure: (§1) If mitochondrial function is impaired, it may cause diabetes mellitus by interfering with insulin signaling. Accordingly, in order to confirm the effect of gypenoside 75 on the activation of the mitochondrial function, after gypenoside 75 was treated, an increased amount of ATP and mitochondrial membrane potentials were measured. Specifically, in order to confirm the effect of gypenoside 75 on the activation of the mitochondrial function, INS-1 cells, which are insulin-secreting cells, were cultured in a cell incubator (37° C., 5% CO2, RPMI culture medium, 10% FBS). The cells were treated with 10 μM of gypenoside 75 for 2 hours, and the amount of ATP and mitochondrial membrane potentials inside the cells were then measured. To measure the amount of intracellular ATP, the INS-1 cells treated with gypenoside 75 were lysed through freezing-thawing and ultrasonication methods. The cell lysates were mixed with luciferase and luciferin to induce fluorescence. As the activation of the luciferase and fluorescence induced thereby depend on the amount of ATP, the degree of fluorescence was measured with a fluorometer to determine the amount of ATP. To measure the mitochondrial membrane potential, the INS-1 cells treated with gypenoside 75 were then stained with TMRM, and the degree of the staining of each cell was measured using a FACS instrument. As the mitochondrial membrane potential increases, the degree of staining by TMRM increases.

INS-1 cells [3] = assay: Mitochondrial membrane potential by TMRM staining and FACS in INS-1 cells; conditions: 10 μM, 2 hours, TMRM staining, FACS
Procedure: as §1

CC(C)=CCC[C@](C)(O[C@@H]1O[C@H](CO)[C@@H](O)[C@H](O)[C@H]1O)[C@H]1CC[C@]2(C)[C@@H]1[C@H](O)C[C@@H]1[C@@]3(C)CC[C@H](O)C(C)(C)[C@@H]3[C@@H](O)C[C@]12C [ginsenoside F1]
increase of the amount of insulin secreted compared to control group (DMSO) (INS-1 cells [1]): 50%
increase of the amount of intracellular ATP compared to control group (DMSO) (INS-1 cells [2]): about 40%
increase of mitochondrial membrane potential compared to control group (DMSO) (INS-1 cells [3]): about 20%

CC(C)=CCC[C@](C)(O)[C@H]1CC[C@]2(C)[C@@H]1[C@H](O)C[C@@H]1[C@@]3(C)CC[C@H](O[C@@H]4O[C@H](CO)[C@@H](O)[C@H](O)[C@H]4O[C@@H]4O[C@H](CO)[C@@H](O)[C@H](O)[C@H]4O)C(C)(C)[C@@H]3CC[C@]12C [ginsenoside Rg3]
increase of the amount of insulin secreted compared to control group (DMSO) (INS-1 cells [1]): 50%
increase of the amount of intracellular ATP compared to control group (DMSO) (INS-1 cells [2]): about 40%
increase of mitochondrial membrane potential compared to control group (DMSO) (INS-1 cells [3]): about 20%

CC(C)=CCC[C@](C)(O[C@@H]1O[C@H](CO[C@@H]2OC[C@@H](O)[C@H](O)[C@H]2O)[C@@H](O)[C@H](O)[C@H]1O)[C@H]1CC[C@]2(C)[C@@H]1[C@H](O)C[C@@H]1[C@@]3(C)CC[C@H](O[C@@H]4O[C@H](CO)[C@@H](O)[C@H](O)[C@H]4O[C@@H]4O[C@H](CO)[C@@H](O)[C@H](O)[C@H]4O)C(C)(C)[C@@H]3CC[C@]12C [ginsenoside Rb3]
increase of the amount of insulin secreted compared to control group (DMSO) (INS-1 cells [1]): 50%
increase of the amount of intracellular ATP compared to control group (DMSO) (INS-1 cells [2]): about 40%
increase of mitochondrial membrane potential compared to control group (DMSO) (INS-1 cells [3]): about 20%

CC(C)=CCC[C@](C)(O[C@@H]1O[C@H](CO[C@@H]2O[C@H](CO)[C@@H](O)[C@H](O)[C@H]2O)[C@@H](O)[C@H](O)[C@H]1O)[C@H]1CC[C@]2(C)[C@@H]1[C@H](O)C[C@@H]1[C@@]3(C)CC[C@H](O)C(C)(C)[C@@H]3CC[C@]12C [gypenoside 75]
increase of the amount of insulin secreted compared to control group (DMSO) (INS-1 cells [1]): about 110%
increase of the amount of intracellular ATP compared to control group (DMSO) (INS-1 cells [2]): 50%
increase of mitochondrial membrane potential compared to control group (DMSO) (INS-1 cells [3]): about 40%

CC(C)=CCC[C@](C)(O[C@@H]1O[C@H](CO[C@@H]2OC[C@H](O)[C@H](O)[C@H]2O)[C@@H](O)[C@H](O)[C@H]1O)[C@H]1CC[C@]2(C)[C@@H]1[C@H](O)C[C@@H]1[C@@]3(C)CC[C@H](O[C@@H]4O[C@H](CO)[C@@H](O)[C@H](O)[C@H]4O[C@@H]4O[C@H](CO)[C@@H](O)[C@H](O)[C@H]4O)C(C)(C)[C@@H]3CC[C@]12C [ginsenoside Rb2]
increase of the amount of insulin secreted compared to control group (DMSO) (INS-1 cells [1]): 50%
increase of the amount of intracellular ATP compared to control group (DMSO) (INS-1 cells [2]): about 40%
increase of mitochondrial membrane potential compared to control group (DMSO) (INS-1 cells [3]): about 20%
